Assay [1] concerns the target T1, unphosphorylated c-FMS kinase (uFMS, Seq. ID no. 1) (Homo sapiens, UniProt P07333).
T1 construct: purchased Millipore
T1 sequence (P07333 538-972): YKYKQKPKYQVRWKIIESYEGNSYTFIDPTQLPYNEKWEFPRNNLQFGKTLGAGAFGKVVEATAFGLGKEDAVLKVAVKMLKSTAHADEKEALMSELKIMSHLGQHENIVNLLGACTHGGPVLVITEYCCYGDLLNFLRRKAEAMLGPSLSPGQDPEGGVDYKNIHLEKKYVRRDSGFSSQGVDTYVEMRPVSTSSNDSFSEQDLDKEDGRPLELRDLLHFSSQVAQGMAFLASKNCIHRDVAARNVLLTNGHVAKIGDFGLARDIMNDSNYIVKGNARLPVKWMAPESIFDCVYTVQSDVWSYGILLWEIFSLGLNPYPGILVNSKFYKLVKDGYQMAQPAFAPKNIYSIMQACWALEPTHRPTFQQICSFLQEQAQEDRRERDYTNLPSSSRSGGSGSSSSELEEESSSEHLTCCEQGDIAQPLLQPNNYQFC
The assay is described as follows: uFMS kinase assay (ADP production coupled to pyruvate kinase/lactate dehydrogenase). The note with it: enzymatic assay, ATP 500 μM. The format is biochemical. As to the method:
uFMS Kinase (Seq. ID No. 1) Assay
In this assay, the oxidation of NADH (thus the decrease at A340 nm) was continuously monitored spectrophometrically. The reaction mixture (100 μL) contained FMS (purchased from Millipore) (10 nM), polyE4Y (1 mg/mL), MgCl2 (10 mM), pyruvate kinase (4 units), lactate dehydrogenase (0.7 units), phosphoenol pyruvate (1 mM), NADH (0.28 mM) and ATP (500 μM) in 90 mM Tris buffer containing 0.2% octyl-glucoside and 1% DMSO, pH 7.5. The inhibition reaction was started by mixing serial diluted test compound with the above reaction mixture. The absorption at 340 nm was monitored continuously for 4 hours at 30° C. on Synergy 2 plate reader. The reaction rate was calculated using the 3 to 4 h time frame. Percent inhibition was obtained by comparison of reaction rate with that of a control (i.e. in the absence of test compound). IC50 values were calculated from a series of percent inhibition values determined at a range of inhibitor concentrations using software routines as implemented in the GraphPad Prism software package.

The target of assay [2] is T2, phospho-FMS in THP-1 cells (Homo sapiens, UniProt P07333).
T2 construct: endogenous in cells; host or cells: THP-1 (ATCC TIB-202)
The assay is described as follows: Phospho-FMS ELISA assay in THP-1 cells. It counts as cell-based. Conditions: 4 hours compound, M-CSF stimulation 5 minutes, read-out: pFMS inhibition in THP-1 cells. As to the method:
Cells were allowed to expand until reaching 70-95% confluency at which point they were subcultured or harvested for assay use.
In a separate 96 well black clear bottom plate, one hundred and fifty thousand THP-1 cells were added per well in 100 μL in assay medium. Fifty microliters of diluted compound was then added to the cells. Plates were incubated for 4 hours at 37 degrees Celsius, 5% CO2, 95% humidity. […] Lysates were prepared and used to perform the phospho-FMS ELISA as described by the manufacturer (catalog #DYC3268, R & D Systems, Minneapolis, Minn.). GraphPad Prism was used to calculate IC50 values obtained from data generated from the ELISA assay.

Assay [3] deals with T3, unphosphorylated PDGFRβ kinase (uPDGFRβ, Seq. ID No. 3) (Homo sapiens, UniProt P09619).
T3 construct: purchased DeCode
The assay is described as follows: uPDGFRβ kinase assay (ADP production coupled to pyruvate kinase/lactate dehydrogenase). The note with it: enzymatic assay, ATP 500 μM. The format is biochemical. As to the method:
Unphosphorylated […]β) Kinase (Seq. ID No. 3) Assay Activity of unphosphorylated PDGFRβ kinase ([…] No. 3) was determined by following the production of ADP from the kinase reaction with ATP and poly E4Y as substrates through coupling with the pyruvate kinase/lactate dehydrogenase system (e.g., Schindler et al. Science (2000) 289: 1938-1942). In this assay, the oxidation of NADH (thus the decrease at A340 nm) was continuously monitored spectrophometrically. The reaction mixture (100 μL) contained PDGFRβ (DeCode, 15.7 nM), polyE4Y (2.5 mg/mL), MgCl2 (10 mM), pyruvate kinase (4 units), lactate dehydrogenase (0.7 units), phosphoenol pyruvate (1 mM) and NADH (0.28 mM) and ATP (500 μM) in a 90 mM Tris buffer containing 0.2% octyl-glucoside and 1% DMSO, at pH 7.5. The inhibition reaction was started by mixing serial diluted test compound with the above reaction mixture. The absorption at 340 nm was monitored continuously for 4 h at 30° C. on a Polarstar Optima or Synergy 2 plate reader. The reaction rate was calculated using the 1.5 to 2.5 h time frame. Percent inhibition was obtained by comparison of reaction rate with that of a control (i.e. with no test compound). IC50 values were calculated from a series of percent inhibition values determined at a range of inhibitor concentrations using software routines as implemented in the GraphPad Prism software package.

Assay [4] deals with T4, unphosphorylated c-KIT kinase (uKIT, Seq. ID no. 2) (Homo sapiens, UniProt P10721).
T4 construct: uKit with N-terminal GST fusion used for screening
The assay is described as follows: uKit kinase assay (ADP production coupled to pyruvate kinase/lactate dehydrogenase). It counts as biochemical. The note with it: enzymatic assay, ATP 2000 μM; read-out: uKIT. As to the method:
In this assay, the oxidation of NADH (thus the decrease at A340 nm) was continuously monitored spectrophometrically. […] The inhibition reaction was started by mixing serial diluted test compound with the above reaction mixture. The absorption at 340 nm was monitored continuously for 4 hours at 30° C. on Synergy 2 plate reader (BioTech).

Assay [5] concerns M-NFS-60 cells. Kind of assay: M-NFS-60 cell proliferation assay (resazurin). It counts as cell-based. Conditions: 67 h incubation. As to the method: M-NFS-60 cells (catalog #CRL-1838) were obtained from the American Type Culture Collection (ATCC, Manassas, Va.). Briefly, cells were grown in suspension in RPMI 1640 medium supplemented with 10% characterized fetal bovine serum (Invitrogen, Carlsbad, Calif.), 0.05 mM 2-mercaptoethanol, and 20 ng/mL mouse recombinant macrophage colony stimulating factor (M-CSF) at 37° C., 5% CO2, and 95% humidity. Cells were allowed to expand until reaching saturation at which point they were subcultured or harvested for assay use.
M-NFS-60 Cell Proliferation Assay
A serial dilution of test compound was dispensed into a 384-well black clear bottom plate (Corning, Corning, N.Y.). Two thousand five hundred cells were added per well in 50 μL complete growth medium. Plates were incubated for 67 h at 37° C., 5% CO2, and 95% humidity. At the end of the incubation period 10 μL of a 440 µM solution of resazurin (Sigma, St. Louis, Mo.) in PBS was added to each well and incubated for an additional 5 h at 37° C., 5% CO2, and 95% humidity. Plates were read on a Synergy2 reader (Biotek, Winooski, Vt.) using an excitation of 540 nm and an emission of 600 nm. IC50 values were calculated from a series of percent inhibition values determined at a range of inhibitor concentrations using software routines as implemented in the GraphPad Prism software package.

Assay [6] deals with osteoclast precursors. Kind of assay: Osteoclast tartrate-resistant acid phosphatase assay. The format is cell-based. The note with it: tartrate-resistant acid phosphatase activity, RANKL and M-CSF, 7-14 days. As to the method:
Osteoclast Tartrate-Resistant Acid Phosphatase Assay
A serial dilution of test compound was dispensed into a 384-well black clear bottom plate (Nalge Nunc International, Rochester, N.Y.). Compound was diluted by the addition of DMEM media supplemented with 10% characterized fetal bovine serum (Invitrogen, Carlsbad, Calif.). Diluted compound was transferred to a 384-well black clear bottom plate. Two-thousand five hundred osteoclast precursors (Lonza, Walkersville, Md.) were added per well in growth media containing Receptor Activator of Nuclear Factor Kappa-beta ligand (RANKL) and M-CSF (R&D Systems, Minneapolis, Minn.). Plates were incubated for 7-14 days at 37 degrees Celsius, 5% CO2, and 95% humidity to allow differentiation of osteoclast precursors. At the end of the incubation period, 10 μL of supernatant from each well was transferred to a clear 384-well plate. Tartrate-resistant acid phosphatase activity in the supernatant samples was determined using an acid phosphatase assay kit (Sigma, St. Louis, Mo.). Absorbance was measured at 550 nm using a plate reader. Data was analyzed using Prism software (Graphpad, San Diego, Calif.) to calculate IC50 values.

The structures appear in SMILES notation.

T3 sequence (P09619 557-1106): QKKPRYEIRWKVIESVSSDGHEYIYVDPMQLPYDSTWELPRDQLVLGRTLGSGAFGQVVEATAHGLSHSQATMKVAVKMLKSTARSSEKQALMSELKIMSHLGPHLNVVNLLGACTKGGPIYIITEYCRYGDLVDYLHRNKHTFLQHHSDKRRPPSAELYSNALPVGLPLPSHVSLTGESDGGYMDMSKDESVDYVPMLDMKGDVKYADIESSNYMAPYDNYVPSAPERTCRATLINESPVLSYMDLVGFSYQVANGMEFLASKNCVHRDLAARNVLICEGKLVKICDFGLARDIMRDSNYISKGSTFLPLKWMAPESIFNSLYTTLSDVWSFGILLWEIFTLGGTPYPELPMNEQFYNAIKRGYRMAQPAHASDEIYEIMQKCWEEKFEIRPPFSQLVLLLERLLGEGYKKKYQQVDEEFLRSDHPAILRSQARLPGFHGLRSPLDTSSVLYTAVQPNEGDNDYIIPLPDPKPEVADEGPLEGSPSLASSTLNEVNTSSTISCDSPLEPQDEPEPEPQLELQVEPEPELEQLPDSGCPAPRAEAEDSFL
T4 sequence (P10721 with tags, fused parts or gaps): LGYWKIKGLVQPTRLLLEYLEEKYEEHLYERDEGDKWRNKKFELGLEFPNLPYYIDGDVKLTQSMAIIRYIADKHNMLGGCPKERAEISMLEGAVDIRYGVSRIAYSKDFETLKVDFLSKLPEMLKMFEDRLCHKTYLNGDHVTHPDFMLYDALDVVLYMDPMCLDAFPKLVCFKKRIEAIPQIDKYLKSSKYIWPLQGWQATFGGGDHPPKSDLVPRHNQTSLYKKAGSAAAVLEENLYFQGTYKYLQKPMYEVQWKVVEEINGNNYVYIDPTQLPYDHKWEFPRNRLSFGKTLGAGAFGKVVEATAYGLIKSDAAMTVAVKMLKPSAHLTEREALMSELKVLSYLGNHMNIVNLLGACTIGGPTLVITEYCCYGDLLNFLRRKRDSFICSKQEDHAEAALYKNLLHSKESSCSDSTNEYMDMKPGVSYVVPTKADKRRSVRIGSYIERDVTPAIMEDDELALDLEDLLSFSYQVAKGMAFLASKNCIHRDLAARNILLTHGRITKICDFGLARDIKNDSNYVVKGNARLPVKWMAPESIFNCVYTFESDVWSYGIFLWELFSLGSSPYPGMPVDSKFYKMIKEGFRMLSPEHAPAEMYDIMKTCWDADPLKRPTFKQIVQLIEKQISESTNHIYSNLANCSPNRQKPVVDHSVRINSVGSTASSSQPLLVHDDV
T2 sequence (P07333 20-972): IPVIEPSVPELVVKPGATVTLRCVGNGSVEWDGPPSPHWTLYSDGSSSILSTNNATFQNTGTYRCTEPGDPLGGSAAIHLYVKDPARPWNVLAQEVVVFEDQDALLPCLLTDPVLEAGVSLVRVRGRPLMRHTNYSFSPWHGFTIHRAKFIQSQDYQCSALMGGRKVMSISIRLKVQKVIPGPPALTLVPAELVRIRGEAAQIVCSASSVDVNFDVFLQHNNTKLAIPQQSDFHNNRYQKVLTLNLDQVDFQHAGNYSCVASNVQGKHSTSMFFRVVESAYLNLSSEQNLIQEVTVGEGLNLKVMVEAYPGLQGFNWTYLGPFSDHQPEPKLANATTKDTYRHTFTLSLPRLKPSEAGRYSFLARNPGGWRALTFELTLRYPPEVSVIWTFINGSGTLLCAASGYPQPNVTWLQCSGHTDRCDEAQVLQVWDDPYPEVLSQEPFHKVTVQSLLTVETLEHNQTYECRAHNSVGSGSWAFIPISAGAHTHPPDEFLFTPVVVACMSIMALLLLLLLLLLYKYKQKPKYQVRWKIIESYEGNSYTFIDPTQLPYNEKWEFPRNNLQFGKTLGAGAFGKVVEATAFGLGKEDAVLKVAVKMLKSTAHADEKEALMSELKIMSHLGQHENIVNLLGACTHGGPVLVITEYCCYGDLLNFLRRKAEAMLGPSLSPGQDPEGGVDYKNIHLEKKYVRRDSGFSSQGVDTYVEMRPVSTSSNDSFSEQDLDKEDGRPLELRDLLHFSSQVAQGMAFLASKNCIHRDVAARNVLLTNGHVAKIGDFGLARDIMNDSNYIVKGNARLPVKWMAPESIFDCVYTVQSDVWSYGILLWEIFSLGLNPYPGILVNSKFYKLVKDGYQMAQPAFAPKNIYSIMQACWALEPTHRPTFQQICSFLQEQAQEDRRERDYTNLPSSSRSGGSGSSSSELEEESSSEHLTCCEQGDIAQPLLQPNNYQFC

As for `COC[C@@H](C)Nc1ncc(-c2ccc(Oc3ccnc(-c4cnn(C)c4)c3)c(C)n2)c(=O)[nH]1` [Example 22, (R)-2-((1-methoxypropan-2-yl)amino)-5-(6-methyl-5-((2-(1-methyl-1H-pyrazol-4-yl)pyridin-4-yl)oxy)pyridin-2-yl)pyrimidin-4(3H)-one], the IC50 in assay [1] is 10 to 100 nM; in assay [2], 100 to 1000 nM; in assay [3], over 1000 nM; in assay [4], over 1000 nM; in assay [5], 10 to 100 nM; in assay [6], under 10 nM.
For `COC[C@H]1CCCN1c1ncc(-c2ccc(Oc3ccnc(-c4cnn(C)c4)c3)c(C)n2)c(=O)[nH]1` [Example 23, (R)-2-(2-(methoxymethyl)pyrrolidin-1-yl)-5-(6-methyl-5-((2-(1-methyl-1H-pyrazol-4-yl)pyridin-4-yl)oxy)pyridin-2-yl)pyrimidin-4(3H)-one], the IC50 in assay [1] is 10 to 100 nM; in assay [3], over 1000 nM; in assay [4], over 1000 nM; in assay [5], 10 to 100 nM; in assay [6], 10 to 100 nM.
Consider `COCCNc1ncc(-c2ccc(Oc3ccnc(-c4cnn(C)c4)c3)c(C)n2)c(=O)n1C` [Example 26, 2-((2-methoxyethyl)amino)-3-methyl-5-(6-methyl-5-((2-(1-methyl-1H-pyrazol-4-yl)pyridin-4-yl)oxy)pyridin-2-yl)pyrimidin-4(3H)-one], for which the IC50 is over 1000 nM in assay [3], over 1000 nM in assay [4], 10 to 100 nM in assay [5] and 10 to 100 nM in assay [6].
With `Cc1nc(-c2cnc(N3CC[C@H](N(C)C)C3)[nH]c2=O)ccc1Oc1ccnc(-c2cnn(C)c2)c1` [Example 24, (S)-2-(3-(dimethylamino)pyrrolidin-1-yl)-5-(6-methyl-5-((2-(1-methyl-1H-pyrazol-4-yl)pyridin-4-yl)oxy)pyridin-2-yl)pyrimidin-4(3H)-one], the IC50 in assay [1] is 100 to 1000 nM; in assay [3], over 1000 nM; in assay [4], over 1000 nM; in assay [5] it was 100 to 1000 nM; in assay [6], 100 to 1000 nM.
Turning to `Cc1cc(-c2cnc(NC(C)C)[nH]c2=O)ncc1Oc1ccnc(-c2cnn(C)c2)c1` [Example 18, 2-(isopropylamino)-5-(4-methyl-5-((2-(1-methyl-1H-pyrazol-4-yl)pyridin-4-yl)oxy)pyridin-2-yl)pyrimidin-4(3H)-one], the IC50 in assay [3] was 10 to 100 nM; in assay [4], 10 to 100 nM; in assay [5], under 10 nM; in assay [6], under 10 nM.
Consider `COCCNc1ncc(-c2ccc(Oc3ccnc(-c4cnn(C)c4)c3)c(C)n2)c(=O)[nH]1` [Example 6, 2-((2-methoxyethyl)amino)-5-(6-methyl-5-((2-(1-methyl-1H-pyrazol-4-yl)pyridin-4-yl)oxy)pyridin-2-yl)pyrimidin-4(3H)-one], for which the IC50 in assay [3] was over 1000 nM; in assay [4], 100 to 1000 nM; in assay [5], 100 to 1000 nM; in assay [6] it was 10 to 100 nM.
As to `Cc1nc(-c2cnc(N3CCC(F)(F)C3)[nH]c2=O)ccc1Oc1ccnc(-c2cnn(C)c2)c1` [Example 30, 2-(3,3-difluoropyrrolidin-1-yl)-5-(6-methyl-5-((2-(1-methyl-1H-pyrazol-4-yl)pyridin-4-yl)oxy)pyridin-2-yl)pyrimidin-4(3H)-one], the IC50 was 10 to 100 nM in assay [1]; 10 to 100 nM in assay [2]; over 1000 nM in assay [3]; over 1000 nM in assay [4]; 100 to 1000 nM in assay [5]; 10 to 100 nM in assay [6].
For `Cc1nc(-c2cnc(NCC(C)(C)C)[nH]c2=O)ccc1Oc1ccnc(-c2cnn(C)c2)c1` [Example 29, 5-(6-methyl-5-((2-(1-methyl-1H-pyrazol-4-yl)pyridin-4-yl)oxy)pyridin-2-yl)-2-(neopentylamino)pyrimidin-4(3H)-one], the IC50 in assay [1] is under 10 nM; in assay [2], 10 to 100 nM; in assay [3], 100 to 1000 nM; in assay [4], 10 to 100 nM; in assay [5] it was 10 to 100 nM; in assay [6], 10 to 100 nM.
As for `Cc1nc(-c2cnc(N3CCCC3)n(C)c2=O)ccc1Oc1ccnc(-c2cnn(C)c2)c1` [Example 16, 3-methyl-5-(6-methyl-5-((2-(1-methyl-1H-pyrazol-4-yl)pyridin-4-yl)oxy)pyridin-2-yl)-2-(pyrrolidin-1-yl)pyrimidin-4(3H)-one], the IC50 in assay [3] was 100 to 1000 nM; in assay [4] it was over 1000 nM; in assay [5] it was under 10 nM; in assay [6] it was under 10 nM.

Values taken from patent US9181223B2, “2-aminopyrimidin-6-ones and analogs exhibiting anti-cancer and anti-proliferative activities” (Deciphera Pharmaceuticals, LLC, priority 2013, dated 2015).
